This note sets out measurements from patent publication US9409905B2, “Antibacterial compounds and methods for use” (PTC THERAPEUTICS, INC., priority 2011, dated 2016).

≈ marks a conversion by molar mass, not a printed value.

Assay [1] deals with Staphylococcus aureus (S. aureus) 29213. Kind of assay: Antibacterial activity, microbroth dilution MIC (Table 1). The conditions noted are these: microbroth dilution, Gram-positive S. aureus 29213, read-out: MIC, 29213. It counts as cell-based. The essentials: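 MIC (μg/mL) is taken as the lowest concentration with no macroscopically visible growth. Strains tested by microbroth dilution: Gram-positive S. aureus 29213, control Gram-negative E. coli 25922, and super-sensitive E. coli BAS849.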

Assay [2] concerns Escherichia coli (E. coli) BAS849. The assay is described as above. It counts as cell-based. To be noted: microbroth dilution, super sensitive Gram-negative E. coli BAS849, read-out: MIC, BAS849. The essentials:
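Lowest concentration stopping macroscopically visible growth under test conditions, by broth microdilution, defines the MIC (μg/mL).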

The subject of a further assay is K. pneumoniae MXX1232. Kind of assay: Antibacterial activity, MIC, resistant strain (Table 4). To be noted: Klebsiella pneumoniae, MXX1232; resistant K. pneumoniae MMX1232, multi-drug resistant clinical isolate; read-out: MIC, MMX1232. It counts as cell-based. The essentials:
(§1)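 The resistant panel comprises multi-drug resistant clinical isolates. All strains were tested by microbroth dilution, with the MIC in μg/mL taken as the lowest concentration that prevented macroscopically visible growth.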

The test system of the next assay is A. baumannii MXX2240. Described as above. It counts as cell-based. The conditions noted are these: Acinetobacter baumannii, MXX2240; resistant A. baumannii MMX2240, multi-drug resistant clinical isolate; read-out: MIC, MMX2240. The essentials: as §1
The subject of the next assay is E. coli LZ3111. Kind of assay: Antibacterial activity, MIC, quinolone resistant strain (Table 2). In kind it is cell-based. To be noted: Escherichia coli, LZ3111, read-out: MIC LZ3111. The essentials: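 Lowest concentration giving no macroscopically visible growth was taken as the MIC (μg/mL) after microbroth dilution testing.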
Assay [3] concerns Acinetobacter baumannii (A. baumannii) BAA747. The experiment in a line: Antibacterial activity, MIC (Table 4). In kind it is cell-based. To be noted: A. baumannii BAA747, read-out: MIC, BAA747. The essentials:
as §1

The test system of assay [4] is Klebsiella pneumoniae (K. pneumoniae) 35657. Kind of assay: Antibacterial activity, MIC (Table 4). It counts as cell-based. To be noted: K. pneumoniae 35657, read-out: MIC, 35657. The method, boiled down: as §1
In assay [5] the test system is Pseudomonas aeruginosa (P. aeruginosa) 27853. Kind of assay: Antibacterial activity, MIC (Table 5). In kind it is cell-based. To be noted: P. aeruginosa 27853, read-out: MIC, 27853. The method, boiled down: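 MIC in μg/mL from broth microdilution; endpoint is the lowest drug level giving no visible growth.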
The subject of another assay is E. coli 25922. Kind of assay: Antibacterial activity, microbroth dilution MIC (Table 1). It counts as cell-based, Escherichia coli. To be noted: Escherichia coli; microbroth dilution; control Gram-negative E. coli 25922 strain; read-out: MIC, 25922. The method, boiled down:
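Potency is reported as minimum inhibitory concentration in μg/mL, determined by broth microdilution as the lowest level of compound that stops growth visible to the eye.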

Consider `CCNCc1c(F)c2cc(-c3[nH]c(=O)c(C(=O)O)c(O)c3CC)ccc2n1C` [Cpd 369, 5-ethyl-6-(2-((ethylamino)methyl)-3-fluoro-1-methyl-1H-indol-5-yl)-4-hydroxy-2-oxo-1,2-dihydropyridine-3-carboxylic acid], for which the MIC in [1] is 12.5 to 150 mg/L (≈ 32.3 to 387 µM); in assay [2], below 1 mg/L; in the assay with K. pneumoniae MXX1232, 12.5 to 150 mg/L (≈ 32.3 to 387 µM); in the assay on A. baumannii MXX2240 it was 3.5 to 12.5 mg/L (≈ 9.03 to 32.3 µM); in the assay on E. coli LZ3111 it was 3.5 to 12.5 mg/L (≈ 9.03 to 32.3 µM); in [3], 1 to 3.5 mg/L (≈ 2.58 to 9.03 µM). In addition, the minimal inhibitory concentration (MIC) in assay [4] is below 1 mg/L; in [5], 12.5 to 150 mg/L (≈ 32.3 to 387 µM); with E. coli 25922 it was 1 to 3.5 mg/L (≈ 2.58 to 9.03 µM).
With `CCc1c(-c2ccc3c(c2)c(F)c(CNC(C)C)n3C)[nH]c(=O)c(C(=O)O)c1O` [Cpd 370, 5-ethyl-6-(3-fluoro-2-((isopropylamino)methyl)-1-methyl-1H-indol-5-yl)-4-hydroxy-2-oxo-1,2-dihydropyridine-3-carboxylic acid], the MIC in [1] was 3.5 to 12.5 mg/L (≈ 8.72 to 31.1 µM); in assay [2], below 1 mg/L; in the assay on K. pneumoniae MXX1232, 12.5 to 150 mg/L (≈ 31.1 to 374 µM); in the assay with A. baumannii MXX2240, 3.5 to 12.5 mg/L (≈ 8.72 to 31.1 µM); in the assay on E. coli LZ3111, 3.5 to 12.5 mg/L (≈ 8.72 to 31.1 µM); in [3], 1 to 3.5 mg/L (≈ 2.49 to 8.72 µM). Moreover, the MIC in assay [4] was 3.5 to 12.5 mg/L (≈ 8.72 to 31.1 µM); in assay [5] it was 12.5 to 150 mg/L (≈ 31.1 to 374 µM); in the assay with E. coli 25922, below 1 mg/L.
Take `CCc1c(-c2ccc3c(c2)c(F)c(CNC(C)(C)C)n3C)[nH]c(=O)c(C(=O)O)c1O` [Cpd 371, 6-(2-((tert-butylamino)methyl)-3-fluoro-1-methyl-1H-indol-5-yl)-5-ethyl-4-hydroxy-2-oxo-1,2-dihydropyridine-3-carboxylic acid]: the MIC was 12.5 to 150 mg/L (≈ 30.1 to 361 µM) in [1]; below 1 mg/L in assay [2]; 12.5 to 150 mg/L (≈ 30.1 to 361 µM) in the assay with K. pneumoniae MXX1232; 3.5 to 12.5 mg/L (≈ 8.42 to 30.1 µM) in the assay on A. baumannii MXX2240; 12.5 to 150 mg/L (≈ 30.1 to 361 µM) with E. coli LZ3111; 3.5 to 12.5 mg/L (≈ 8.42 to 30.1 µM) in assay [3]. Besides, the MIC in assay [4] was in the range of 1 to 3.5 mg/L (≈ 2.41 to 8.42 µM); in [5], 12.5 to 150 mg/L (≈ 30.1 to 361 µM); with E. coli 25922, 1 to 3.5 mg/L (≈ 2.41 to 8.42 µM).
Turning to `CCc1cc(C(=O)O)c(=O)[nH]c1-c1ccc2c(ccn2C)c1OCc1ccccc1` [Cpd 372, 6-(4-(benzyloxy)-1-methyl-1H-indol-5-yl)-5-ethyl-2-oxo-1,2-dihydropyridine-3-carboxylic acid], the MIC (in assay [1]; in assay [2]; in the assay on K. pneumoniae MXX1232; with A. baumannii MXX2240; in the assay on E. coli LZ3111; in assay [3]) was 12.5 to 150 mg/L (≈ 31.1 to 373 µM) throughout. Moreover, the MIC (in [4]; in [5]; in the assay with E. coli 25922) was 12.5 to 150 mg/L (≈ 31.1 to 373 µM) each time.
Regarding `CCc1c(-c2ccc3c(ccn3C)c2OCc2ccccc2)[nH]c(=O)c(C(=O)O)c1O` [Cpd 373, 6-(4-(benzyloxy)-1-methyl-1H-indol-5-yl)-5-ethyl-4-hydroxy-2-oxo-1,2-dihydropyridine-3-carboxylic acid], the MIC in assay [1] is 1 to 3.5 mg/L (≈ 2.39 to 8.36 µM); in assay [2], 3.5 to 12.5 mg/L (≈ 8.36 to 29.9 µM); in the assay on K. pneumoniae MXX1232 it was 12.5 to 150 mg/L (≈ 29.9 to 358 µM); in the assay on A. baumannii MXX2240 it was 12.5 to 150 mg/L (≈ 29.9 to 358 µM); in the assay on E. coli LZ3111, 12.5 to 150 mg/L (≈ 29.9 to 358 µM); in [3] it was 12.5 to 150 mg/L (≈ 29.9 to 358 µM). Also, the minimum inhibitory concentration (MIC) (in assay [4]; in assay [5]; in the assay on E. coli 25922) was 12.5 to 150 mg/L (≈ 29.9 to 358 µM) in each case.
Turning to `CCc1c(-c2ccc3c(ccn3C)c2O)[nH]c(=O)c(C(=O)O)c1O` [Cpd 374, 5-ethyl-4-hydroxy-6-(4-hydroxy-1-methyl-1H-indol-5-yl)-2-oxo-1,2-dihydropyridine-3-carboxylic acid], the MIC (in assay [1]; in [2]; with K. pneumoniae MXX1232; with A. baumannii MXX2240; with E. coli LZ3111; in assay [3]) was 12.5 to 150 mg/L (≈ 38.1 to 457 µM) each time. Moreover, the MIC (in assay [4]; in assay [5]; in the assay with E. coli 25922) was 12.5 to 150 mg/L (≈ 38.1 to 457 µM) each time.
Take `C=CC1C(O)=C(C(=O)O)C(=O)NC1c1ccc2c(ccn2C)c1` (stereo not drawn) [Cpd 375, 4-hydroxy-6-(1-methyl-1H-indol-5-yl)-2-oxo-5-vinyl-1,2,5,6-tetrahydropyridine-3-carboxylic acid]: the MIC was 12.5 to 150 mg/L (≈ 40 to 480 µM) in [1]; below 1 mg/L in [2]; 12.5 to 150 mg/L (≈ 40 to 480 µM) in the assay on K. pneumoniae MXX1232; 1 to 3.5 mg/L (≈ 3.2 to 11.2 µM) with A. baumannii MXX2240; 1 to 3.5 mg/L (≈ 3.2 to 11.2 µM) with E. coli LZ3111; 12.5 to 150 mg/L (≈ 40 to 480 µM) in assay [3]. Besides, the MIC (in assay [4]; in [5]; with E. coli 25922) was 12.5 to 150 mg/L (≈ 40 to 480 µM) in each case.
